The test system of data set [1] is HCT-116. Description: in vitro cytotoxicity, tumor cell line HCT-116. The data set is classed as cell-based. The settings on record: Homo sapiens. As to the method: (§1) General Experimental Procedures. NMR spectra were obtained on a Bruker DRX 500 MHz spectrometer, equipped with a 5-mm TXI cryoprobe. Proton and carbon chemical shifts are reported in ppm relative to DMSO at δH 2.49 and δC 39.6. LC-NMR on an enriched psoroxanthin (4) sample was conducted with a Varian Inova 600 MHz instrument, using a YMC ODS-AQ (C18) column, 4.6×150 mm, 3μ and mobile phase water-acetonitrile 7:3, isocratic, 1.2 ml/min flow rate. Low-resolution MS and MS/MS measurements were performed by +νe ESI on a Thermo Scientific Finnigan SSQ7000 (single quadrupole MS), TSQ7000 (triple quadrupole MS), or LCQ Classic (ion trap MS). High-resolution MS data were determined by HR +νe ESI on a Thermo Scientific Finnigan MAT900 (magnetic sector MS, polypropylene glycol reference) or Orbitrap (hybrid ion trap-FTICR MS). IR spectra were recorded with a Perkin-Elmer System 2000 FT-IR instrument (thin film-NaCl). UV spectra were obtained using a Hewlett-Packard 8452A diode array spectrophotometer. Sephadex LH-20 (Pharmacia Biotech) and LiChroprep Si 60, 25-40 μm (EM Separations) were used for column chromatography. HPLC(C18) conditions: Analytical: Agilent HP-1100, Waters corp. […]
(§2) The SOS active compounds 1 and 4 were evaluated for in vitro cytotoxicity in a variety of tumor cell lines. […]

The test system of data set [2] is Escherichia coli SOS chromotest. Nature of the data set: Escherichia coli SOS chromotest (TLC/HPLC biogram). The settings on record: E. coli SOS chromotest. The data set is classed as cell-based. The text has this: The crude extracts as received were subjected to a modified “Kupchan” liquid-liquid partitioning sequence, (Kupchan, S. M., Britton, R. W., Ziegler, M. F., Sigel, C. W.; J. Org. Chem., 1973, 38, 178-179.), followed by gel partition chromatography (Sephadex LH-20) and/or Silica gel vacuum liquid chromatography. The fractionation was guided initially by TLC-bioautography using the Escherichia coli SOS chromotest assay. ((a) Quillardet, P.; Huisman, O.; D'Ari, R.; Hofnung, M. Proc. Natl. Acad. Sci. U.S.A. 1982, 79, 5971-5975. (b) Mamber, S. W.; Okasinski, W. G.; Pinter, C. D.; Tunac, J. B. Mutat. Res., 1986, 171, 83-90.). More precise localization of the peak of SOS activity was later made possible using HPLC biogram methodology. ((a) Fura, A.; Shu, Y.-Z.; Zhu, M.; Hanson, R. L.; Roongta, V.; Humphreys, W. G. J. Med. Chem. 2004, 47, 4339-4351. (b) Hook, D. J., More, C. F., Yacobucci, J. J., Dubay, G., O'Connor, S.; J. Chromatogr., 1987, 385, 99-108.). In this manner, analytical HPLC was used to further fractionate the SOS-active sample into 96-deep-well plates. […]
General Experimental Procedures. […] High-resolution MS data were determined by HR +νe ESI on a Thermo Scientific Finnigan MAT900 (magnetic sector MS, polypropylene glycol reference) or Orbitrap (hybrid ion trap-FTICR MS). IR spectra were recorded with a Perkin-Elmer System 2000 FT-IR instrument (thin film-NaCl). […]

Data set [3] relates to A2780. Description: in vitro cytotoxicity, tumor cell line A2780. The conditions noted are these: Homo sapiens. The data set is classed as cell-based. How it is done: as §1, §2
Data set [4] concerns 6-cell line panel. Nature of the data set: cytotoxicity in a 6-cell line panel. The format is cell-based. The settings on record: read-out: mean IC50, cytotoxicity. As to the method: (§3) In particular there was a clear in vitro cytotoxicity observed against ABAE cells (bovine endothelial cell line, 0.03 μg/ml).
as §1

The nature of data set [5]: in vitro cytotoxicity, ABAE bovine endothelial cells. The data set is classed as cell-based. The settings on record: bovine, ABAE endothelial cells; ABAE cell line. As to the method:
as §3
as §1, with “corp. X-Terra […] (C18) column, 4.6×150 mm; mobile phase: 0.01 N potassium phosphate buffer pH 3.5-acetonitrile gradient, flow rate 1.2 ml/min. UV 254 nm (Hook, D. J., More, C. F., Yacobucci, J. J., Dubay, G., O'Connor, S.; J. Chromatogr., 1987, 385, 99-108.) Preparative: Beckman System Gold workstation, YMC ODS-A 5μ (C18) column, 20×100 mm. For TLC biogram (SOS) analyses, Silica gel plates (Analtech, 0.25 mm) with chloroform-methanol mixtures (i.e. 95:5 v/v) as the mobile phase were used. For HPLC biogram (SOS) analyses, fractions were collected into Beckman 96-deepwell plates using a Gilson 215 liquid handler and dried under nitrogen stream prior to bioassay.” for “corp.”
as §2

The test system of data set [6] is p388 mouse leukemia. The settings on record: cited from earlier work.
For data set [7], the system named is various tumor cell lines. The settings on record: cited from earlier work.
The subject of data set [8] is SKBR3. Nature of the data set: in vitro cytotoxicity, tumor cell line SKBR3. The format is cell-based. The settings on record: Homo sapiens, SK-BR-3, read-out: Cytotoxicity IC50. As to the method: as §1, §2
In data set [9] the test system is ABAE cells (bovine endothelial cell line). Nature of the data set: in vitro cytotoxicity, ABAE bovine endothelial cells. The conditions noted are these: versus the tumor cell lines. The data set is classed as cell-based. As to the method:
as §3
as §1, with “corp. X-Terra […] (C18) column, 4.6×150 mm; mobile phase: 0.01 N potassium phosphate buffer pH 3.5-acetonitrile gradient, flow rate 1.2 ml/min. UV 254 nm (Hook, D. J., More, C. F., Yacobucci, J. J., Dubay, G., O'Connor, S.; J. Chromatogr., 1987, 385, 99-108.) Preparative: Beckman System Gold workstation, YMC ODS-A 5μ (C18) column, 20×100 mm. For TLC biogram (SOS) analyses, Silica gel plates (Analtech, 0.25 mm) with chloroform-methanol mixtures (i.e. 95:5 v/v) as the mobile phase were used. For HPLC biogram (SOS) analyses, fractions were collected into Beckman 96-deepwell plates using a Gilson 215 liquid handler and dried under nitrogen stream prior to bioassay.” for “corp.”
as §2

Values after ≈ are worked out from the molar mass of the structure shown. Like-named read-outs stand apart in the source and are kept apart here.

The term IC50 denotes the point on the concentration scale where inhibition reaches its midpoint.

In the case of `O=c1c2c(O)cccc2oc2ccc3c(c12)CC(C1(CO)CO1)O3` (centres unmarked) [Example 4, Psoroxanthin], the IC50 in data set [1] (HCT-116 cell line, read-out: Cytotoxicity IC50) is 1000 nM; in data set [3] (A2780 cell line, read-out: Cytotoxicity IC50), 330 nM; in data set [4] (mean over 6-cell line panel), 0.2 to 4 µg/mL (≈ 0.613 to 12.3 µM); in data set [5] it was 102 nM. Also, in data set [2], the SOS activity entry is “highly potent SOS-active”.
As to `COc1cc2c(c3oc4c(O)cccc4c(=O)c13)C[C@H]([C@@]1(C)CO1)O2` [psorospermin], in data set [6], the “activity in vivo against p388 mouse leukemia” value is “significant activity”. Further, the “activity in vitro against various tumor cell lines” value in data set [7] is listed as “significant activity”.
Turning to `O=c1c2c(O)cccc2oc2ccc3c(c12)CC(C(O)(CO)CCl)O3` (centres unmarked) [Example 1, 3′,4′-deoxy-4′ chloropsoroxanthin-3′,5′-diol], the IC50 in data set [1] (HCT-116, read-out: Cytotoxicity IC50) is 68 nM; in [8], 2000 nM; in data set [3] (A2780, read-out: Cytotoxicity IC50) it was 42 nM; in data set [4] it was 0.2 to 4 µg/mL (≈ 0.551 to 11 µM); in [5], 4 nM. Further, the SOS activity result in data set [2] is “SOS-active”. The “selectivity against bovine endothelial cells (ABAE)” value in data set [9] is listed as “showed selectivity against bovine endothelial cells (ABAE)”.

(Values after patent US8263644B2, “Cytotoxic xanthone compounds” (Bristol-Myers Squibb Company, priority 2007, dated 2012).)
